Test system: MV-4-11 cells
Assay: Gene expression microarray analysis (Affymetrix PrimeView) and GSEA
Assay type: cell-based, human
Set-up: RFU PODN (11730768_x_at) / Fold change /veh PODN (11730768_x_at) / RFU LINC00158 (11744669_a_at) / Fold change /veh LINC00158 (11744669_a_at) / RFU DUSP10 (11751237_a_at) / Fold change /veh DUSP10 (11751237_a_at) / RFU ID3 (11757404_x_at) / Fold change /veh ID3 (11757404_x_at) / RFU PLEKHG5 (11737974_s_at) / Fold change /veh PLEKHG5 (11737974_s_at) / RFU LRRC4B (11730491_at) / Fold change /veh LRRC4B (11730491_at) / RFU GIMAP4 (11747438_a_at) / Fold change /veh GIMAP4 (11747438_a_at) / RFU KRT8 (11758183_x_at) / Fold change /veh KRT8 (11758183_x_at) / RFU CNN1 (11734310_a_at) / Fold change /veh CNN1 (11734310_a_at) / RFU VPS37D (11726825_at) / Fold change /veh VPS37D (11726825_at) / RFU C10orf10 (11716522_x_at) / Fold change /veh C10orf10 (11716522_x_at) / RFU KIR2DL2 /// KIR2DL4 /// KIR2DL5A /// KIR2DL5B /// KIR2DS1 /// KIR2DS2 /// KIR2DS3 /// KIR2DS4 /// KIR3DL3 /// KIR3DL3 /// KIR3DS1 (11738374_at) / Fold change /veh KIR2DL2 /// KIR2DL4 /// KIR2DL5A /// KIR2DL5B /// KIR2DS1 /// KIR2DS2 /// KIR2DS3 /// KIR2DS4 /// KIR3DL3 /// KIR3DL3 /// KIR3DS1 (11738374_at) / RFU C1QL1 (11718748_at) / Fold change /veh C1QL1 (11718748_at) / RFU TMPRSS4 (11747572_a_at) / Fold change /veh TMPRSS4 (11747572_a_at) / RFU HAMP (11756126_x_at) / Fold change /veh HAMP (11756126_x_at) / RFU RNFT2 (11725882_a_at) / Fold change /veh RNFT2 (11725882_a_at) / RFU NR4A2 (11747474_a_at) / Fold change /veh NR4A2 (11747474_a_at) / RFU ABCC12 (11746883_a_at) / Fold change /veh ABCC12 (11746883_a_at) / RFU TMEM136 (11760407_x_at) / Fold change /veh TMEM136 (11760407_x_at) / RFU CLDN22 /// WWC2 (11732394_at) / Fold change /veh CLDN22 /// WWC2 (11732394_at) / RFU HLA-DPB1 (11760878_x_at) / Fold change /veh HLA-DPB1 (11760878_x_at) / RFU SPINT1 (11716480_a_at) / Fold change /veh SPINT1 (11716480_a_at) / RFU GAP43 (11754022_s_at) / Fold change /veh GAP43 (11754022_s_at) / RFU A4GNT (11735810_at) / Fold change /veh A4GNT (11735810_at) / RFU PRB3 (11715151_x_at) / Fold change /veh PRB3 (11715151_x_at) / RFU TUBB4B (11761932_at) / Fold change /veh TUBB4B (11761932_at) / RFU CAPN14 (11732068_a_at) / Fold change /veh CAPN14 (11732068_a_at) / RFU TMCC2 (11721928_a_at) / Fold change /veh TMCC2 (11721928_a_at) / RFU IRGQ (11745062_a_at) / Fold change /veh IRGQ (11745062_a_at) / RFU FAM174B (11720279_a_at) / Fold change /veh FAM174B (11720279_a_at) / RFU TMPRSS4 (11748680_a_at) / Fold change /veh TMPRSS4 (11748680_a_at) / RFU FAM212B (11763350_a_at) / Fold change /veh FAM212B (11763350_a_at) / RFU PLEKHG5 (11743358_a_at) / Fold change /veh PLEKHG5 (11743358_a_at) / RFU ZSCAN30 (11745921_a_at) / Fold change /veh ZSCAN30 (11745921_a_at) / RFU CMKLR1 (11741424_a_at) / Fold change /veh CMKLR1 (11741424_a_at) / RFU LOC101060620 /// MAPK8IP1 (11723275_at) / Fold change /veh LOC101060620 /// MAPK8IP1 (11723275_at) / RFU SPTSSB (11747773_x_at) / Fold change /veh SPTSSB (11747773_x_at) / RFU PRSS12 (11739890_at) / Fold change /veh PRSS12 (11739890_at) / RFU BIN1 (11741810_x_at) / Fold change /veh BIN1 (11741810_x_at) / RFU WNT11 (11732464_a_at) / Fold change /veh WNT11 (11732464_a_at) / RFU C10orf10 (11716521_a_at) / Fold change /veh C10orf10 (11716521_a_at) / RFU C5orf56 (11738089_at) / Fold change /veh C5orf56 (11738089_at) / RFU CYB561 (11721691_x_at) / Fold change /veh CYB561 (11721691_x_at) / RFU ANKRD19P (11752326_a_at) / Fold change /veh ANKRD19P (11752326_a_at) / RFU OR2T12 /// OR2T33 /// OR2T8 (11738714_s_at) / Fold change /veh OR2T12 /// OR2T33 /// OR2T8 (11738714_s_at) / RFU VCAN (11748164_a_at) / Fold change /veh VCAN (11748164_a_at) / RFU JSRP1 (11732532_at) / Fold change /veh JSRP1 (11732532_at) / RFU KRTAP10-11 (11738290_x_at) / Fold change /veh KRTAP10-11 (11738290_x_at) / RFU MYO3A (11730013_a_at) / Fold change /veh MYO3A (11730013_a_at) / RFU EBF3 (11725865_a_at) / Fold change /veh EBF3 (11725865_a_at) / RFU CAMK2N1 (11719241_x_at) / Fold change /veh CAMK2N1 (11719241_x_at) / RFU C5orf56 (11738088_a_at) / Fold change /veh C5orf56 (11738088_a_at) / RFU OLFML3 (11715873_a_at) / Fold change /veh OLFML3 (11715873_a_at) / RFU LOC100653217 /// NTM (11731650_a_at) / Fold change /veh LOC100653217 /// NTM (11731650_a_at) / RFU MAPK11 (11762145_a_at) / Fold change /veh MAPK11 (11762145_a_at) / RFU FIZ1 (11724087_x_at) / Fold change /veh FIZ1 (11724087_x_at) / RFU OASL (11726364_x_at) / Fold change /veh OASL (11726364_x_at) / RFU SOX15 (11748057_x_at) / Fold change /veh SOX15 (11748057_x_at) / RFU CD79A (11719716_a_at) / Fold change /veh CD79A (11719716_a_at) / RFU HIST1H1D (11736915_at) / Fold change /veh HIST1H1D (11736915_at) / RFU CASKIN2 (11723855_a_at) / Fold change /veh CASKIN2 (11723855_a_at) / RFU LOC730098 (11760151_x_at) / Fold change /veh LOC730098 (11760151_x_at) / RFU OR4N2 (11742367_at) / Fold change /veh OR4N2 (11742367_at) / RFU PRRT2 (11749266_a_at) / Fold change /veh PRRT2 (11749266_a_at) / RFU SNX32 (11753110_a_at) / Fold change /veh SNX32 (11753110_a_at) / RFU CDHR5 (11726645_a_at) / Fold change /veh CDHR5 (11726645_a_at) / RFU RCAN1 (11760418_a_at) / Fold change /veh RCAN1 (11760418_a_at) / RFU FAM167A (11723789_a_at) / Fold change /veh FAM167A (11723789_a_at) / RFU FAM26E (11764081_at) / Fold change /veh FAM26E (11764081_at) / RFU ISYNA1 (11749810_s_at) / Fold change /veh ISYNA1 (11749810_s_at) / RFU ACY1 (11761880_at) / Fold change /veh ACY1 (11761880_at) / RFU 11764098_at / Fold change /veh 11764098_at / RFU SAMD14 (11745864_x_at) / Fold change /veh SAMD14 (11745864_x_at) / RFU NPB (11741838_a_at) / Fold change /veh NPB (11741838_a_at) / RFU TMPRSS6 (11731388_a_at) / Fold change /veh TMPRSS6 (11731388_a_at) / RFU KRTAP10-2 (11738614_at) / Fold change /veh KRTAP10-2 (11738614_at) / RFU ARHGAP8 /// PRR5-ARHGAP8 (11727945_x_at) / Fold change /veh ARHGAP8 /// PRR5-ARHGAP8 (11727945_x_at) / RFU KRTAP5-7 /// NADSYN1 (11734609_at) / Fold change /veh KRTAP5-7 /// NADSYN1 (11734609_at) / RFU RASL12 (11751679_a_at) / Fold change /veh RASL12 (11751679_a_at) / RFU CDKN2B (11736163_a_at) / Fold change /veh CDKN2B (11736163_a_at) / RFU PRF1 (11729649_at) / Fold change /veh PRF1 (11729649_at) / RFU, ZNF638 /// ZNF638-IT1 / Fold change vs veh, ZNF638 /// ZNF638-IT1 / RFU, PANK3 / Fold change vs veh, PANK3 / RFU, SH3YL1 / Fold change vs veh, SH3YL1 / RFU, ZEB2 / Fold change vs veh, ZEB2 / RFU, NRIP1 / Fold change vs veh, NRIP1 / RFU, PTTG1IP / Fold change vs veh, PTTG1IP / RFU, CAPN2 / Fold change vs veh, CAPN2 / RFU, MED14 / Fold change vs veh, MED14 / RFU, SNORA58 / Fold change vs veh, SNORA58 / RFU, C1orf63 / Fold change vs veh, C1orf63 / RFU, LRRFIP1 / Fold change vs veh, LRRFIP1 / RFU, NDUFAF7 / Fold change vs veh, NDUFAF7 / RFU, SLC12A2 / Fold change vs veh, SLC12A2 / RFU, IBTK / Fold change vs veh, IBTK / RFU, ESF1 / Fold change vs veh, ESF1 / Fold change vs veh, TMEM50B / RFU, TAOK1 / Fold change vs veh, TAOK1 / RFU, ACBD3 / Fold change vs veh, ACBD3 / RFU, TMA16 / Fold change vs veh, TMA16 / RFU, RWDD3 / Fold change vs veh, RWDD3 / RFU, BCAT1 / Fold change vs veh, BCAT1 / RFU, EDEM3 / Fold change vs veh, EDEM3 / RFU, TMEM33 / Fold change vs veh, TMEM33 / RFU, WDR75 / Fold change vs veh, WDR75 / RFU, AHCTF1 / Fold change vs veh, AHCTF1 / RFU, TFRC / Fold change vs veh, TFRC / RFU, ZDHHC17 / Fold change vs veh, ZDHHC17 / RFU, NOM1 / Fold change vs veh, NOM1 / RFU, ARL8B / Fold change vs veh, ARL8B / RFU, ZBTB11 / Fold change vs veh, ZBTB11 / RFU, TAMM41 / Fold change vs veh, TAMM41 / RFU, KIAA1704 /// LOC100996395 / Fold change vs veh, KIAA1704 /// LOC100996395 / RFU, ING1 / Fold change vs veh, ING1 / RFU, TRMT61B / Fold change vs veh, TRMT61B / RFU, FUBP3 / Fold change vs veh, FUBP3 / RFU, TP53 / Fold change vs veh, TP53 / RFU, TNKS2 / Fold change vs veh, TNKS2 / RFU, ZFP14 / Fold change vs veh, ZFP14 / RFU, ACTR2 / Fold change vs veh, ACTR2 / RFU, PPP3R1 / Fold change vs veh, PPP3R1 / RFU, PIK3R1 / Fold change vs veh, PIK3R1 / RFU, HNRNPA1 / Fold change vs veh, HNRNPA1 / RFU, RNF170 / Fold change vs veh, RNF170 / RFU, ZNF28 / Fold change vs veh, ZNF28 / RFU, RNGTT / Fold change vs veh, RNGTT / RFU, OGT / Fold change vs veh, OGT / RFU, BRD1 / Fold change vs veh, BRD1 / RFU, MARS / Fold change vs veh, MARS / RFU, ZNF655 / Fold change vs veh, ZNF655 / RFU, FAHD1 / Fold change vs veh, FAHD1 / RFU, BDP1 / Fold change vs veh, BDP1 / RFU, LRRCC1 / Fold change vs veh, LRRCC1 / RFU, ARID1A / Fold change vs veh, ARID1A / RFU, ZNF146 / Fold change vs veh, ZNF146 / RFU, ZNF330 / Fold change vs veh, ZNF330 / RFU, GPN3 / Fold change vs veh, GPN3 / RFU, C9orf123 / Fold change vs veh, C9orf123 / RFU, N4BP2L2 / Fold change vs veh, N4BP2L2 / RFU, ARFIP1 / Fold change vs veh, ARFIP1 / RFU, FAM179B / Fold change vs veh, FAM179B / RFU, BCL10 / Fold change vs veh, BCL10 / RFU, UHRF1BP1L / Fold change vs veh, UHRF1BP1L / RFU, BET1 / Fold change vs veh, BET1 / RFU, CNOT2 / Fold change vs veh, CNOT2 / RFU, ZNF268 / Fold change vs veh, ZNF268 / Fold change vs veh, ZNF507 / RFU, DGCR2 / Fold change vs veh, DGCR2 / RFU, WDSUB1 / Fold change vs veh, WDSUB1 / Fold change vs veh, HSP90B1 /// MIR3652 / RFU, ADSS / Fold change vs veh, ADSS / RFU, GK / Fold change vs veh, GK / RFU, ZNF148 / Fold change vs veh, ZNF148 / RFU, TAF9 / Fold change vs veh, TAF9 / RFU, SLC1A5 / Fold change vs veh, SLC1A5 / RFU, SLMO2 / Fold change vs veh, SLMO2 / RFU, ABCC4 / Fold change vs veh, ABCC4 / RFU, LOC101060439 /// RAP1B / Fold change vs veh, LOC101060439 /// RAP1B / RFU, RFX7 / Fold change vs veh, RFX7 / RFU, GTPBP10 / Fold change vs veh, GTPBP10 / RFU, CNEP1R1 / Fold change vs veh, CNEP1R1 / RFU, BIVM-ERCC5 /// ERCC5 / Fold change vs veh, BIVM-ERCC5 /// ERCC5 / RFU, ILF3 / Fold change vs veh, ILF3 / RFU 11762660_at / Fold change /veh 11762660_at / RFU VCAN (11757783_s_at) / Fold change /veh VCAN (11757783_s_at) / RFU DDX43 (11728927_at) / Fold change /veh DDX43 (11728927_at) / RFU KRT8 (11758188_x_at) / Fold change /veh KRT8 (11758188_x_at) / RFU NKD1 (11759106_at) / Fold change /veh NKD1 (11759106_at) / RFU SRD5A1 (11742802_a_at) / Fold change /veh SRD5A1 (11742802_a_at) / RFU TPSAB1 /// TPSB2 (11721975_s_at) / Fold change /veh TPSAB1 /// TPSB2 (11721975_s_at) / RFU GSTM3 (11746129_a_at) / Fold change /veh GSTM3 (11746129_a_at) / RFU IL23R (11737362_x_at) / Fold change /veh IL23R (11737362_x_at) / RFU TMEM51 (11727254_a_at) / Fold change /veh TMEM51 (11727254_a_at) / RFU PIWIL2 (11732686_x_at) / Fold change /veh PIWIL2 (11732686_x_at) / RFU ORM1 (11744905_x_at) / Fold change /veh ORM1 (11744905_x_at) / RFU CCDC152 (11743942_at) / Fold change /veh CCDC152 (11743942_at) / RFU ECM1 (11717891_a_at) / Fold change /veh ECM1 (11717891_a_at) / RFU IL23R (11748794_a_at) / Fold change /veh IL23R (11748794_a_at) / RFU TNFAIP8L3 (11732012_x_at) / Fold change /veh TNFAIP8L3 (11732012_x_at) / RFU MBOAT4 (11741988_at) / Fold change /veh MBOAT4 (11741988_at) / RFU 11764193_at / Fold change /veh 11764193_at / RFU TMEM53 (11763286_at) / Fold change /veh TMEM53 (11763286_at) / RFU MAGEB2 (11727129_at) / Fold change /veh MAGEB2 (11727129_at) / RFU TMEM200A (11744735_a_at) / Fold change /veh TMEM200A (11744735_a_at) / RFU CCDC152 (11751479_a_at) / Fold change /veh CCDC152 (11751479_a_at) / RFU FAM211A (11726209_a_at) / Fold change /veh FAM211A (11726209_a_at) / RFU RGS16 (11746705_a_at) / Fold change /veh RGS16 (11746705_a_at) / RFU VCAN (11755009_s_at) / Fold change /veh VCAN (11755009_s_at) / RFU RHOB (11743442_s_at) / Fold change /veh RHOB (11743442_s_at) / RFU RGS16 (11720943_a_at) / Fold change /veh RGS16 (11720943_a_at) / RFU RGS16 (11720944_at) / Fold change /veh RGS16 (11720944_at) / RFU, VPS4B / Fold change vs veh, VPS4B / RFU, CREB1 / Fold change vs veh, CREB1 / RFU, DNAJC13 / Fold change vs veh, DNAJC13 / RFU, GNAQ / Fold change vs veh, GNAQ / RFU, CDK5R1 / Fold change vs veh, CDK5R1 / RFU, ZRANB3 / Fold change vs veh, ZRANB3 / RFU, CUL4A / Fold change vs veh, CUL4A / RFU, CCNY / Fold change vs veh, CCNY / RFU, UFL1 / Fold change vs veh, UFL1 / RFU, COG3 / Fold change vs veh, COG3 / RFU, DIAPH2 / Fold change vs veh, DIAPH2 / RFU, SKA2 / Fold change vs veh, SKA2 / RFU, AFF3 / Fold change vs veh, AFF3 / RFU, LMF1 / Fold change vs veh, LMF1 / RFU, IPO11 / Fold change vs veh, IPO11 / RFU, DFFB / Fold change vs veh, DFFB / RFU, FOXP1 / Fold change vs veh, FOXP1 / RFU, CARD8 / Fold change vs veh, CARD8 / RFU, STRN3 / Fold change vs veh, STRN3 / RFU, ADK / Fold change vs veh, ADK / RFU, RASSF2 / Fold change vs veh, RASSF2 / RFU, WIPF1 / Fold change vs veh, WIPF1 / RFU, LARP1B / Fold change vs veh, LARP1B / RFU, RASA1 / Fold change vs veh, RASA1 / RFU, RB1 / Fold change vs veh, RB1 / RFU, PPFIA1 / Fold change vs veh, PPFIA1 / RFU, MAT2A / Fold change vs veh, MAT2A / RFU, CCT5 / Fold change vs veh, CCT5 / RFU, WDR92 / Fold change vs veh, WDR92 / RFU, CUX1 / Fold change vs veh, CUX1 / RFU, TTC7A / Fold change vs veh, TTC7A / RFU, TMEM135 / Fold change vs veh, TMEM135 / RFU, DEPTOR / Fold change vs veh, DEPTOR / RFU, CPM / Fold change vs veh, CPM / RFU, DNAJB6 / Fold change vs veh, DNAJB6 / RFU, CACNA2D3 / Fold change vs veh, CACNA2D3 / RFU, DTX4 / Fold change vs veh, DTX4 / RFU, TFCP2 / Fold change vs veh, TFCP2 / RFU, GMCL1 /// GMCL1P1 / Fold change vs veh, GMCL1 /// GMCL1P1 / RFU, AEBP2 / Fold change vs veh, AEBP2 / RFU, SNHG1 /// SNORD22 /// SNORD25 /// SNORD26 /// SNORD27 /// SNORD28 /// SNORD29 /// SNORD31 / Fold change vs veh, SNHG1 /// SNORD22 /// SNORD25 /// SNORD26 /// SNORD27 /// SNORD28 /// SNORD29 /// SNORD31 / Fold change (Aza/veh), C12orf56 (ProbeSet 11735607_a_at) / Fold change (ACY-1035/veh), C12orf56 (ProbeSet 11735607_a_at) / Fold change (Aza/veh), FGFR1OP (ProbeSet 11751329_s_at) / Fold change (ACY-1035/veh), FGFR1OP (ProbeSet 11751329_s_at) / Fold change (Aza/veh), VPS36 (ProbeSet 11739960_a_at) / Fold change (ACY-1035/veh), VPS36 (ProbeSet 11739960_a_at) / RFU SYPL1 (11715823_x_at) / Fold change /veh SYPL1 (11715823_x_at) / RFU IGFBP7 (11715501_s_at) / Fold change /veh IGFBP7 (11715501_s_at) / RFU REEP3 (11722064_at) / Fold change /veh REEP3 (11722064_at) / RFU IGLL1 (11728026_x_at) / Fold change /veh IGLL1 (11728026_x_at): dose or concentration left out as unconfirmed
Details: ProbeSet 11753616_s_at; LIST B

## Nc1ccc(-c2cccs2)cc1NC(=O)c1ccc2c(c1)cc(C1CC1)n2CCN1CCOCC1 [ACY-1035]
  RFU, ARL8B: 236.78 RFU
